Test results reported in ChEMBL document CHEMBL4387741, “Optimization of novel reversible Bruton's tyrosine kinase inhibitors identified using Tethering-fragment-based screens” (Bioorg Med Chem, 2019).

How the values were obtained:
[1] = biological target: Mitogen-activated protein kinase kinase kinase 3 (Homo sapiens) (UniProt Q99759); assay: Inhibition of wild-type human partial length MAP3K3 (E320 to Y626 residues) expressed in mammalian expression system at 1 uM by Kinomescan method relative to control
[2] = biological target: 5'-AMP-activated protein kinase catalytic subunit alpha-1 (Homo sapiens) (UniProt Q13131); assay: Inhibition of wild-type human partial length AMPK alpha1 (M1 to E306 residues) expressed in bacterial expression system at 1 uM by Kinomescan method relative to control
[3] = biological target: Protein kinase C delta type (Homo sapiens) (UniProt Q05655); assay: Inhibition of wild-type human partial length PRKCD (Q328 to D676 residues) expressed in bacterial expression system at 1 uM by Kinomescan method relative to control
Chain of Protein kinase C delta type (Homo sapiens) (Q05655 whole entry, looked up, the tested form may be a part): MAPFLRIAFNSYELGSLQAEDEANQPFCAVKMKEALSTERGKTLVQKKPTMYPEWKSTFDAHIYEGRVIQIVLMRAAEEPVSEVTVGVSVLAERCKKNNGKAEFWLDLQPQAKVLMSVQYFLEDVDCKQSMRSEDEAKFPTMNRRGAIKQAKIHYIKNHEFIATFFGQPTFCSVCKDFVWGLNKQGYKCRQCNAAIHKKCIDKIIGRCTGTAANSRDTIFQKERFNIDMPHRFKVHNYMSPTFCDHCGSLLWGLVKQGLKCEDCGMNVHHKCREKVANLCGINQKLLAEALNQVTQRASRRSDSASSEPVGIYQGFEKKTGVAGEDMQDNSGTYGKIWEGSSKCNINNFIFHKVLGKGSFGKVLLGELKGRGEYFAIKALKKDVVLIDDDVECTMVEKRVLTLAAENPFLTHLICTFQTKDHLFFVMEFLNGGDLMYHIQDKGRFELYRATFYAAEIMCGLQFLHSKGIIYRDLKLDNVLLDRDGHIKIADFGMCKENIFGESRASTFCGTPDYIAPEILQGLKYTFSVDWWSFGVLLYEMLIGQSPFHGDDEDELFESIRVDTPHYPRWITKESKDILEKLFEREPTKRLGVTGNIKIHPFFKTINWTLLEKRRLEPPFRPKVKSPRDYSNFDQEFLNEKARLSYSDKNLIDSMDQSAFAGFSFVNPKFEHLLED

[4] = biological target: Serine/threonine-protein kinase Chk2 (Homo sapiens) (UniProt O96017); assay: Inhibition of wild-type human partial length CHEK2 (S253 to E574 residues) expressed in bacterial expression system at 1 uM by Kinomescan method relative to control
[5] = biological target: Mitogen-activated protein kinase kinase kinase 15 (Homo sapiens) (UniProt Q6ZN16); assay: Inhibition of wild-type human partial length MAP3K15 (T625 to L932 residues) expressed in mammalian expression system at 1 uM by Kinomescan method relative to control
[6] = biological target: Mitogen-activated protein kinase kinase kinase 13 (Homo sapiens) (UniProt O43283); assay: Inhibition of wild-type human full length LZK (M1 to W966 residues) expressed in mammalian expression system at 1 uM by Kinomescan method relative to control
[7] = biological target: Dual specificity mitogen-activated protein kinase kinase 6 (Homo sapiens) (UniProt P52564); assay: Inhibition of wild-type human partial length MEK6 (K36 to D334 residues) expressed in bacterial expression system at 1 uM by Kinomescan method relative to control
Chain of Dual specificity mitogen-activated protein kinase kinase 6 (Homo sapiens) (P52564 whole entry, the tested form may be a part): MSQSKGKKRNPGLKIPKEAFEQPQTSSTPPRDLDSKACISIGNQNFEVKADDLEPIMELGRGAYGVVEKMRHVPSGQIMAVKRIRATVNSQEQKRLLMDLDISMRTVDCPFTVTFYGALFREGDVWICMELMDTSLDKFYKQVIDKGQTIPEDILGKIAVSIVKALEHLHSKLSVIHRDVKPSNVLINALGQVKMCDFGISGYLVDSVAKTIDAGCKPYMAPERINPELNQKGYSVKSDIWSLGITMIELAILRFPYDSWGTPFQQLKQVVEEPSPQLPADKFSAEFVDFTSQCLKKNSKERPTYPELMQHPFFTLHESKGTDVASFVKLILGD

[8] = biological target: Rho-associated protein kinase 1 (Homo sapiens) (UniProt Q13464); assay: Inhibition of wild-type human partial length ROCK1 (M1 to R415 residues) expressed in mammalian expression system at 1 uM by Kinomescan method relative to control
Chain of Rho-associated protein kinase 1 (Homo sapiens) (Q13464 2-1354 limits assumed): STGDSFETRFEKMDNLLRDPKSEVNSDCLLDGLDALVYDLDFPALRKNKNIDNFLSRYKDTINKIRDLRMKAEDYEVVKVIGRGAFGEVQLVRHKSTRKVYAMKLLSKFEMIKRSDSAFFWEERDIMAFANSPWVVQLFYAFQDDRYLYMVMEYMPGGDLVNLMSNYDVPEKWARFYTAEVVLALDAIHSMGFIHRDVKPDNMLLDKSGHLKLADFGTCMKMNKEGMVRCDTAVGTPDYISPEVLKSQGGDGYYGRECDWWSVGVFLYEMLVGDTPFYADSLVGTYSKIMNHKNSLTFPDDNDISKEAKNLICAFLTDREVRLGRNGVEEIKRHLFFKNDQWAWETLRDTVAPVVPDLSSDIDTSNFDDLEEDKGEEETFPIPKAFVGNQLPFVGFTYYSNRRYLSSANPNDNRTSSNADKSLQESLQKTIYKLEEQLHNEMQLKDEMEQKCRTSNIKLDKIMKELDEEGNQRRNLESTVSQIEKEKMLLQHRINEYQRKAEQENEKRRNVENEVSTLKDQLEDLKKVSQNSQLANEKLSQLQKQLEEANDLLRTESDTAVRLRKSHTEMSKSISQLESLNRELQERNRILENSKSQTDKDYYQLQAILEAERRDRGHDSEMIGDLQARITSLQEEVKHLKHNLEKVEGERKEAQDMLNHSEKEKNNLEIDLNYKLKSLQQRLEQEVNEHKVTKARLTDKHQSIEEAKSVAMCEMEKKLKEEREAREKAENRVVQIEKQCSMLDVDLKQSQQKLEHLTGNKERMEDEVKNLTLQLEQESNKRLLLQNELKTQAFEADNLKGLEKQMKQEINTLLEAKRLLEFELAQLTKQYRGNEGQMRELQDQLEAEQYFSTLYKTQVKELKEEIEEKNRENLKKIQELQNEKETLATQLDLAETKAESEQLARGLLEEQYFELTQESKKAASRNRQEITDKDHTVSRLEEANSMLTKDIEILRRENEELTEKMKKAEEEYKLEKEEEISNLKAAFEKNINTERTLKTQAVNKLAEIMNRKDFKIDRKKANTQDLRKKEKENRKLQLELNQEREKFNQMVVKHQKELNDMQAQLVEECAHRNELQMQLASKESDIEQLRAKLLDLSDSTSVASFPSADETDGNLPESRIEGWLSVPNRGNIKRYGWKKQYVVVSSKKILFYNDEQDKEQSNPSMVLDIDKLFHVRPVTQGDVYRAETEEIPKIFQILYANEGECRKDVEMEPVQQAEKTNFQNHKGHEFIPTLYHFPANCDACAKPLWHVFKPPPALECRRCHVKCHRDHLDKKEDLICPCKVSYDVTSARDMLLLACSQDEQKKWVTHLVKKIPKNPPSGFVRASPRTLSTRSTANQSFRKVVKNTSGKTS

[9] = biological target: Protein kinase C iota type (Homo sapiens) (UniProt P41743); assay: Inhibition of wild-type human partial length PRKCI (H215 to V587 residues) expressed in mammalian expression system at 1 uM by Kinomescan method relative to control
Chain of Protein kinase C iota type (Homo sapiens) (P41743 whole entry, the tested form may be a part): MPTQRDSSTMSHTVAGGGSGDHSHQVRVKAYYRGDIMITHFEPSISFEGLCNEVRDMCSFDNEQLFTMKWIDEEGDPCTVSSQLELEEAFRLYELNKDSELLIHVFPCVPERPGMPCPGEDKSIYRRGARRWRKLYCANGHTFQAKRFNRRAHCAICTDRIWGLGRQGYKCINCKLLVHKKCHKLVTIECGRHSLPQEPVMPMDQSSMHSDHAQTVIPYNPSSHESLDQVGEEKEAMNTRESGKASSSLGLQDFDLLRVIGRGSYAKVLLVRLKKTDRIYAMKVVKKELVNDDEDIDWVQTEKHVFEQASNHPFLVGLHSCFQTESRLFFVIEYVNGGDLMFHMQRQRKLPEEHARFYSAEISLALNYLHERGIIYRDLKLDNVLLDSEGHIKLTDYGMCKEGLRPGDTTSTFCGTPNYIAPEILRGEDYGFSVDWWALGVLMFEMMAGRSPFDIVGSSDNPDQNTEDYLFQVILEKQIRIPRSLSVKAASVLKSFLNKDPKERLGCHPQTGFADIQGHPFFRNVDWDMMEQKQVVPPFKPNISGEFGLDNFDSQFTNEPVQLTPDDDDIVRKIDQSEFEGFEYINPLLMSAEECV

[10] = biological target: Receptor tyrosine-protein kinase erbB-4 (Homo sapiens) (UniProt Q15303); assay: Inhibition of wild-type human partial length ERBB4 (L690 to K994 residues) expressed in bacterial expression system at 1 uM by Kinomescan method relative to control
[11] = biological target: Testis-specific serine/threonine-protein kinase 1 (Homo sapiens) (UniProt Q9BXA7); assay: Inhibition of wild-type human full length TSSK1B (M1 to Q367 residues) expressed in bacterial expression system at 1 uM by Kinomescan method relative to control
Chain of Testis-specific serine/threonine-protein kinase 1 (Homo sapiens) (Q9BXA7 whole entry, the tested form may be a part): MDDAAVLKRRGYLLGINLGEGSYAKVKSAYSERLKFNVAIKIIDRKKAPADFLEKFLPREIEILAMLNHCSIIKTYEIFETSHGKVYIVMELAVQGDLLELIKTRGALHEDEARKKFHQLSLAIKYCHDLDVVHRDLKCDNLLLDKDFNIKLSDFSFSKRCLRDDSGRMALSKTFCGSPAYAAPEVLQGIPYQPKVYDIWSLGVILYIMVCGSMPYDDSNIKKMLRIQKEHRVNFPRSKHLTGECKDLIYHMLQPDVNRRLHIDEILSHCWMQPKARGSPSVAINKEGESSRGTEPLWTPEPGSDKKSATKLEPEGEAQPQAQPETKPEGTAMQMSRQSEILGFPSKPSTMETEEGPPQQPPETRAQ

[12] = biological target: cAMP-dependent protein kinase catalytic subunit alpha (Homo sapiens) (UniProt P17612); assay: Inhibition of wild-type human partial length PKAC-alpha (G10 to F351 residues) expressed in bacterial expression system at 1 uM by Kinomescan method relative to control
[13] = biological target: Tyrosine-protein kinase JAK1 (Homo sapiens) (UniProt P23458); assay: Inhibition of wild-type human partial length JAK1 JH1 catalytic domain (V856 to K1154 residues) expressed in bacterial expression system at 1 uM by Kinomescan method relative to control
[14] = biological target: Inhibitor of nuclear factor kappa-B kinase subunit alpha (Homo sapiens) (UniProt O15111); assay: Inhibition of wild-type human full length IKK-alpha (M1 to E745 residues) expressed in mammalian expression system at 10 uM by Kinomescan method relative to control
[15] = biological target: Cyclin-dependent kinase-like 5 (Homo sapiens) (UniProt O76039); assay: Inhibition of wild-type human partial length CDKL5 (M1 to S337 residues) expressed in mammalian expression system at 10 uM by Kinomescan method relative to control
Chain of Cyclin-dependent kinase-like 5 (Homo sapiens) (O76039 whole entry, the tested form may be a part): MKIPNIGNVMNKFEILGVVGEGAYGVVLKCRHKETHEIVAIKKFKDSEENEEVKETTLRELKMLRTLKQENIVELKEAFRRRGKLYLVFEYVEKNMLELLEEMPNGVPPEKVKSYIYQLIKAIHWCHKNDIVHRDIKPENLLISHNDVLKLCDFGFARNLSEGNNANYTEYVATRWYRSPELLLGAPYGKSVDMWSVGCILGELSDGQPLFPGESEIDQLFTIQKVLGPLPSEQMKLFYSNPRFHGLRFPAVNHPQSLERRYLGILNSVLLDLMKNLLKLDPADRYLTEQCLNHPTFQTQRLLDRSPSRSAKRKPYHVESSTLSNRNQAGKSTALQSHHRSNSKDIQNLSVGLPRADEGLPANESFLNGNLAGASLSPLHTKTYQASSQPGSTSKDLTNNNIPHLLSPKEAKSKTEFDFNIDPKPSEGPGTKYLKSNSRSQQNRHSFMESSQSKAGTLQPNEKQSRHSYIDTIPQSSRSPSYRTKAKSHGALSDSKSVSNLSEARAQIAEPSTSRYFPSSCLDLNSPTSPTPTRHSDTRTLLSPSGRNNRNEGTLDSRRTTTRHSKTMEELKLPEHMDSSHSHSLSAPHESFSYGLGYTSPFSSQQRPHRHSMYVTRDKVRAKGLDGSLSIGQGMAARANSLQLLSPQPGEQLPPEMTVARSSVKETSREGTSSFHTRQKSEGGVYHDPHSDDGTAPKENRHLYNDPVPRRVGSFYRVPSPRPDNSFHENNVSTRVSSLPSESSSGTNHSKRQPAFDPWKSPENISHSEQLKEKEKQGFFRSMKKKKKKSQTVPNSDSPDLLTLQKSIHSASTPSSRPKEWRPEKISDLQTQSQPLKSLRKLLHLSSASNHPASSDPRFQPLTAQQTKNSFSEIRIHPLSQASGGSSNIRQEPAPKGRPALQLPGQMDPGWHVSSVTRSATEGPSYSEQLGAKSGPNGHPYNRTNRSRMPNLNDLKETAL

[16] = biological target: Phosphatidylinositol 4-phosphate 5-kinase type-1 alpha (Homo sapiens) (UniProt Q99755); assay: Inhibition of wild-type human full length PIP5K1A (M1 to H562 residues) expressed in bacterial expression system at 10 uM by Kinomescan method relative to control
[17] = biological target: BDNF/NT-3 growth factors receptor (Homo sapiens) (UniProt Q16620); assay: Inhibition of wild-type human partial length TRKB (Q547 to G838 residues) expressed in mammalian expression system at 10 uM by Kinomescan method relative to control
[18] = test system: Mast/stem cell growth factor receptor Kit (Homo sapiens), P10721 [L576P]; assay: Inhibition of human partial length KIT L576P mutant (Y545 to D952 residues) expressed in bacterial expression system at 10 uM by Kinomescan method relative to control
[19] = biological target: 1-phosphatidylinositol 3-phosphate 5-kinase (Homo sapiens) (UniProt Q9Y2I7); assay: Inhibition of wild-type human partial length PIKFYVE (F1512 to C2098 residues) expressed in mammalian expression system at 10 uM by Kinomescan method relative to control
[20] = biological target: Serine/threonine-protein kinase Nek10 (Homo sapiens) (UniProt Q6ZWH5); assay: Inhibition of wild-type human partial length NEK10 (L488 to R809 residues) expressed in mammalian expression system at 10 uM by Kinomescan method relative to control
[21] = biological target: Tyrosine-protein kinase Fgr (Homo sapiens) (UniProt P09769); assay: Inhibition of wild-type human partial length FGR (L233 to T529 residues) expressed in bacterial expression system at 10 uM by Kinomescan method relative to control
[22] = test system: Serine/threonine-protein kinase B-raf (Homo sapiens), P15056 [V600E]; assay: Inhibition of human partial length BRAF V600E mutant (S429 to E741 residues) expressed in mammalian expression system at 10 uM by Kinomescan method relative to control
Chain of Serine/threonine-protein kinase B-raf (Homo sapiens), P15056 [V600E] (P15056 whole entry V600E, the tested form may be a part): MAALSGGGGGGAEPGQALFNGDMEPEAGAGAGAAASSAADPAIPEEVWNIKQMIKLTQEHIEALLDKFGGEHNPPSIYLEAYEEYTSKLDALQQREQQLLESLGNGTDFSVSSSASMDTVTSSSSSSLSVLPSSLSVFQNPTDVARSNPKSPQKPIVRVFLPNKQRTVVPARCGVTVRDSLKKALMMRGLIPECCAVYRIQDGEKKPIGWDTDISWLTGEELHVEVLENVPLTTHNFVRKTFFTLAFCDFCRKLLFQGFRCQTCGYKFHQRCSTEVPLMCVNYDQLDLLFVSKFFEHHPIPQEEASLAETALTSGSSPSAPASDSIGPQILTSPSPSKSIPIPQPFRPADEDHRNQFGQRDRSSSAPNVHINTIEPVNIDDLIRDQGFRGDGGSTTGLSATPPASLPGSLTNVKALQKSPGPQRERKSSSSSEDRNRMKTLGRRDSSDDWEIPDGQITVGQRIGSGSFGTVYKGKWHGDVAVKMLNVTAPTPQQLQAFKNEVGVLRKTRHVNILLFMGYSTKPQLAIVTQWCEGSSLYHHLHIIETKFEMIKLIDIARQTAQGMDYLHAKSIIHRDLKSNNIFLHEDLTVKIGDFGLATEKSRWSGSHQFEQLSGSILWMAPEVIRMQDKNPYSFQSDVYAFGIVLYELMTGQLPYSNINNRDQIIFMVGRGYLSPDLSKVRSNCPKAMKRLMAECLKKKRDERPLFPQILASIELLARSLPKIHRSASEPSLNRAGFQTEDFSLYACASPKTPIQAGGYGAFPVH

[23] = biological target: Serine/threonine-protein kinase LATS2 (Homo sapiens) (UniProt Q9NRM7); assay: Inhibition of wild-type human partial length LATS2 (Q641 to V1088 residues) expressed in mammalian expression system at 10 uM by Kinomescan method relative to control
[24] = biological target: Non-receptor tyrosine-protein kinase TYK2 (Homo sapiens) (UniProt P29597); assay: Inhibition of wild-type human partial length TYK2 JH1 catalytic domain (V877 to C1187 residues) expressed in mammalian expression system at 10 uM by Kinomescan method relative to control
[25] = biological target: Phosphatidylinositol 4,5-bisphosphate 3-kinase catalytic subunit beta isoform (Homo sapiens) (UniProt P42338); assay: Inhibition of wild-type human partial length PIK3CB (P118 to S1070 residues) expressed in mammalian expression system at 10 uM by Kinomescan method relative to control
[26] = test system: Hepatocyte growth factor receptor (Homo sapiens), P08581 [M1250T]; assay: Inhibition of human partial length MET M1250T mutant (D1010 to S1367 residues) expressed in bacterial expression system at 10 uM by Kinomescan method relative to control

Compound: O=C(Nc1cccc([C@@H]2CN(c3ncnc4[nH]ccc34)CCN2CCO)c1)Nc1c(F)cccc1N1CCCC1
- inhibition [1]: 42%
- inhibition [2]: 61%
- inhibition [3]: 85%
- inhibition [4]: 69%
- inhibition [5]: 74%
- inhibition [6]: 100%
- inhibition [7]: 92%
- inhibition [8]: 71%
- inhibition [9]: 54%
- inhibition [10]: 100%
- inhibition [11]: 100%
- inhibition [12]: 76%
- inhibition [13]: 17%

Compound: O=C(Nc1cccc([C@H]2CCCN(c3ncnc4[nH]ccc34)C2)c1)Nc1ccccc1N1CCCC1
- inhibition [14]: 27%
- inhibition [15]: 96%
- inhibition [16]: 5.1%
- inhibition [17]: 69%
- inhibition [18]: 0.2%
- inhibition [19]: 77%
- inhibition [20]: 4.3%
- inhibition [21]: 62%
- inhibition [22]: 16%
- inhibition [23]: 14%
- inhibition [24]: 0.6%
- inhibition [25]: 94%
- inhibition [26]: 97%
